Results on 22 molecules are retold here after patent US20230011869A1 (Hoffmann-La Roche Inc., priority 2018, published 2023).

This test relates to Acinetobacter baumannii ATCC17961. Put plainly: Antimicrobial susceptibility testing: 90% growth inhibitory concentration (IC90) determination, Iso-Sensitest broth. Format: cell-based. The following applies: read-out: ATCC17961 IC90. The gist of the method: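 Twofold serial dilutions (e.g. 50 to 0.097 μM final) in Iso-Sensitest broth, inoculum 5×10^(5) CFU/ml, incubated at 35±2° C. OD600 read every 20 minutes over 16 h; IC90 derived from growth inhibition during logarithmic phase.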

Setting [1] is: 90% growth inhibitory concentration, Acinetobacter baumannii ATCC17961, Iso-Sensitest broth, OD 600 nm over 16 h.
The mark [2] stands for this setting: Acinetobacter baumannii, ATCC17961, 16 h.
[3] abbreviates: Acinetobacter baumannii, ATCC17961, 16 h, 90% growth inhibitory concentration, Acinetobacter baumannii ATCC17961, Iso-Sensitest broth, OD 600 nm over 16 h.

SMILES strings stand for the structures. Structures can show the parent of a compound that is named as a salt. Where two headings read alike, the source gives them in different places.

Consider `Cc1cc(Nc2nccn3c(-c4ccc(OCC#N)c(F)c4Cl)cnc23)ccc1C(=O)N1CCN(C(=O)[C@@H]2C[C@@H](O)CN2)CC1` [Example 251, 2-[3-chloro-2-fluoro-4-[8-[4-[4-[(2S,4R)-4-hydroxypyrrolidine-2-carbonyl]piperazine-1-carbonyl]-3-methylanilino]imidazo[1,2-a]pyrazin-3-yl]phenoxy]acetonitrile], for which, under setting [1], the IC90 amounted to 80 nM.
On to `Cc1cc(Nc2nccn3c(-c4ccc(OC(F)F)cc4)cnc23)ccc1C(=O)N1CCC(C(=O)N[C@H]2CCNC2)CC1` [Example 279, 1-[4-[[3-[4-(difluoromethoxy)phenyl]imi-dazo[1,2-a]pyrazin-8-yl]amino]-2-methylbenzoyl]-N-[(3S)-pyrrolidin-3-yl]piperidine-4-carboxamide; hydrochloride], for which the concentration for an effect of 90% (IC90) under setting [2] was 1340 nM.
Take `COc1ccc(-c2cnc3c(Nc4ccc(C(=O)N5CCN(C(=O)[C@@H]6C[C@H](C)CN6)CC5)c(C)c4)nccn23)c(F)c1F` [Example 282, [4-[[3-(2,3-difluoro-4-methoxyphenyl)imidazo[1,2-a]pyrazin-8-yl]amino]-2-methylphenyl]-[4-[(2S,4S)-4-methylpyrrolidine-2-carbonyl]piperazin-1-yl]methanone; hydrochloride]: the IC90 under setting [2] is 72 nM.
As for `Cc1cc(Nc2nccn3c(-c4ccc(OCC#N)c(Cl)c4F)cnc23)ccc1C(=O)N1CCN(C(=O)[C@@H]2C[C@@H](O)CN2)CC1` [Example 283, 2-[2-chloro-3-fluoro-4-[8-[4-[4-[(2S,4R)-4-hydroxypyrrolidine-2-carbonyl]piperazine-1-carbonyl]-3-methylanilino]imidazo[1,2-a]pyrazin-3-yl]phenoxy]acetonitrile], the IC90 under setting [3] came out at 51 nM.
As to `COc1ccc(-c2cnc3c(Nc4ccc(C(=O)N5CCN(C(=O)[C@@H]6C[C@@H](CO)CN6)CC5)c(C)c4)nccn23)c(F)c1F` [Example 284, [4-[[3-(2,3-difluoro-4-methoxyphenyl)imidazo[1,2-a]pyrazin-8-yl]amino]-2-methylphenyl]-[4-[(2S,4R)-4-(hydroxymethyl)pyrrolidine-2-carbonyl]piperazin-1-yl]methanone; hydrochloride], under setting [2], the IC90 is 49 nM.
`COc1ccc(-c2cnc3c(Nc4ccc(C(=O)N5CCN(C(=O)[C@@]6(O)CNCC[C@@H]6O)CC5)c(C)c4)nccn23)c(F)c1F` [Example 287, [4-[[3-(2,3-difluoro-4-methoxyphenyl)imidazo[1,2-a]pyrazin-8-yl]amino]-2-methylphenyl]-[4-[(3R,4S)-3,4-dihydroxypiperidine-3-carbonyl]piperazin-1-yl]methanone]: the IC90 under setting [3] amounted to 80 nM.
On to `COc1ccc(-c2cnc3c(Nc4ccc(C(=O)N5CCN(C(=O)[C@]6(O)CNCC[C@H]6O)CC5)c(C)c4)nccn23)c(F)c1F` [Example 288, [4-[[3-(2,3-difluoro-4-methoxyphenyl)imidazo[1,2-a]pyrazin-8-yl]amino]-2-methylphenyl]-[4-[(3S,4R)-3,4-dihydroxypiperidine-3-carbonyl]piperazin-1-yl]methanone; hydrochloride], for which the IC90 under setting [2] is 88 nM.
For the molecule `COc1ccc(-c2cnc3c(Nc4ccc(C(=O)N5CCN(C(=O)N6CCN[C@@H]([C@@H](C)O)C6)CC5)c(C)c4)nccn23)c(F)c1F` [Example 289, [4-[[3-(2,3-difluoro-4-methoxyphenyl)imidazo[1,2-a]pyrazin-8-yl]amino]-2-methylphenyl]-[4-[(3R)-3-[(1R)-1-hydroxyethyl]piperazine-1-carbonyl]piperazin-1-yl]methanone; hydrochloride], the concentration for an effect of 90% (IC90) under setting [2] turned out to be 89 nM.
As for `COc1ccc(-c2cnc3c(Nc4ccc(C(=O)N5CCN(C(=O)[C@@]6(O)CNCC[C@@H]6O)CC5)c(C)c4)nccn23)c(F)c1F` [Example 290, [4-[[3-(2,3-difluoro-4-methoxyphenyl)imidazo[1,2-a]pyrazin-8-yl]amino]-2-methylphenyl]-[4-[(3R,4S)-3,4-dihydroxypiperidine-3-carbonyl]piperazin-1-yl]methanone; hydrochloride], under setting [2], the IC90 was determined as 109 nM.
As for `COc1ccc(-c2cnc3c(Nc4ccc(C(=O)N5CCC(C(=O)N6CCN[C@@H]([C@@H](C)O)C6)CC5)c(C)c4)nccn23)c(F)c1F` [Example 292, [4-[[3-(2,3-difluoro-4-methoxyphenyl)imidazo[1,2-a]pyrazin-8-yl]amino]-2-methylphenyl]-[4-[(3R)-3-[(1R)-1-hydroxyethyl]piperazine-1-carbonyl]piperidin-1-yl]methanone; hydrochloride], the IC90 under setting [2] came out at 123 nM.
For `COc1ccc(-c2cnc3c(Nc4ccc(C(=O)N5CCC(CN)CC5)c(C)c4)nccn23)cc1` [Example 293, [4-(aminomethyl)piperidin-1-yl]-[4-[[3-(4-methoxyphenyl)imidazo[1,2-a]pyrazin-8-yl]amino]-2-methylphenyl]methanone], the IC90 under setting [1] was 141 nM.
With `COc1ccc(-c2cnc3c(Nc4ccc(C(=O)N5CCC(C(=O)NC[C@H](O)[C@@H](O)CN)CC5)c(C)c4)nccn23)c(F)c1F` [Example 294, N-[(2S,3S)-4-amino-2,3-dihydroxybutyl]-1-[4-[[3-(2,3-difluoro-4-methoxyphenyl)imidazo[1,2-a]pyrazin-8-yl]amino]-2-methylbenzoyl]piperidine-4-carboxamide], the IC90 under setting [3] was 160 nM.
As for `COc1ccc(-c2cnc3c(Nc4ccc(C(=O)N5CCN(C(=O)[C@]6(O)C[C@@H](O)[C@@H](O)[C@H](O)C6)CC5)c(C)c4)nccn23)c(F)c1F` [Example 295, [4-[[3-(2,3-difluoro-4-methoxyphenyl)imidazo[1,2-a]pyrazin-8-yl]amino]-2-methylphenyl]-[4-[(3R,5R)-1,3,4,5-tetrahydroxycyclohexanecar-bonyl]piperazin-1-yl]methanone], the IC90 under setting [3] was determined as 171 nM.
As for `COc1ccc(-c2cnc3c(Nc4ccc(C(=O)N5CCN(S(=O)(=O)[C@H]6CCNC6)CC5)c(C)c4)nccn23)c(F)c1F` [Example 297, [4-[[3-(2,3-difluoro-4-methoxyphenyl)imidazo[1,2-a]pyrazin-8-yl]amino]-2-methylphenyl]-[4-[(3S)-pyrrolidin-3-yl]sulfonylpiperazin-1-yl]methanone], the IC90 under setting [3] worked out at 192 nM.
As to `COc1ccc(-c2cnc3c(Nc4ccc(C(=O)N5CCN(C(=O)[C@@H]6C[C@](C)(O)CN6)CC5)c(C)c4)nccn23)c(F)c1F` [Example 455, [4-[[3-(2,3-difluoro-4-methoxyphenyl)imidazo[1,2-a]pyrazin-8-yl]amino]-2-methylphenyl]-[4-[(2S,4S)-4-hydroxy-4-methylpyrrolidine-2-carbonyl]piperazin-1-yl]methanone; formic acid], the IC90 under setting [2] was found to be 66 nM.
On to `COc1ccc(-c2cnc3c(Nc4ccc(C(=O)N5CCN(C(=O)[C@@H]6C[C@](C)(O)CN6)CC5)c(C)c4)nccn23)cc1F` [Example 461, [4-[[3-(3-fluoro-4-methoxyphenyl)imidazo[1,2-a]pyrazin-8-yl]amino]-2-methylphenyl]-[4-[(2S,4S)-4-hydroxy-4-methylpyrrolidine-2-carbonyl]piperazin-1-yl]methanone; formic acid], for which the IC90 under setting [2] was 148 nM.
For the molecule `COc1ccc(-c2cnc3c(Nc4ccc(C(=O)N5CCN(C(=O)[C@@H]6C[C@@](C)(O)CN6)CC5)c(C)c4)nccn23)cc1F` [Example 463, [4-[[3-(3-fluoro-4-methoxyphenyl)imidazo[1,2-a]pyrazin-8-yl]amino]-2-methylphenyl]-[4-[(2S,4R)-4-hydroxy-4-methylpyrrolidine-2-carbonyl]piperazin-1-yl]methanone; formic acid], the IC90 under setting [2] was 132 nM.
On to `CC[C@]1(O)CN[C@H](C(=O)N2CCN(C(=O)c3ccc(Nc4nccn5c(-c6ccc(OC)c(F)c6)cnc45)cc3C)CC2)C1` [Example 464, [4-[(2S,4R)-4-ethyl-4-hydroxypyrrolidine-2-carbonyl]piperazin-1-yl]-[4-[[3-(3-fluoro-4-methoxyphenyl)imidazo[1,2-a]pyrazin-8-yl]amino]-2-methylphenyl]methanone; for-mic acid], for which, under setting [3], the IC90 is 137 nM.
For `CCc1cc(Nc2nccn3c(-c4ccc(OC)c(F)c4F)cnc23)ccc1C(=O)N1CCNCC1` [Example 466], under setting [3], the IC90 came to 175 nM.
As to `COc1ccc(-c2cnc3c(Nc4ccc(C(=O)N5CCN(C(=O)CC[C@H](NC(=O)[C@@H](N)CCCCN)C(=O)O)CC5)c(C)c4)nccn23)c(F)c1F` [Example 531, (2S)-2-[[(2S)-2,6-diaminohexanoyl]amino]-5-[4-[4-[[3-(2,3-difluoro-4-methoxyphenyl)imidazo[1,2-a]pyrazin-8-yl]amino]-2-methylbenzoyl]piperazin-1-yl]-5-oxopentanoic acid; hydrochloride], the IC90 under setting [2] came out at 686 nM.
As to `COc1ccc(-c2cnc3c(Nc4ccc(C(=O)N5CCN(C(=O)[C@H](CCCN)NC(=O)[C@@H](N)CCC(=O)O)CC5)c(C)c4)nccn23)c(F)c1F` [Example 535, (4S)-4-amino-5-[[2S)-5-amino-1-[4-[4-[[3-(2,3-difluoro-4-methoxyphenyl)imidazo[1,2-a]pyrazin-8-yl]amino]-2-methylbenzoyl]piperazin-1-yl]-1-oxopentan-2-yl]amino]-5-oxopentanoic acid; hydrochloride], the 90% effect concentration (IC90) under setting [3] was found to be 1920 nM.
Still for that read-out and setting: then `Cc1cc(Nc2nccn3c(-c4ccc(OCC#N)c(F)c4Cl)cnc23)ccc1C(=O)N1CCC(C(=O)N2CCN[C@H](CO)C2)CC1` [Example 538, 2-[3-chloro-2-fluoro-4-[8-[4-[4-[(3S)-3-(hydroxymethyl)piperazine-1-carbonyl]piperidine-1-carbonyl]-3-methylanilino]imidazo[1,2-a]pyrazin-3-yl]phenoxy]acetonitrile; for-mic acid], with 88 nM.
